According to patent US8377986B2, “Amino acid derivatives” (Proximagen Ltd., priority 2007, dated 2013):

Assay: Pharmacokinetic analysis: apparent half-life of L-Dopa in rat plasma after dosing prodrug co-dosed with Benserazide
Assay type: in vivo
Details: male Wistar rats, L-Dopa generated from prodrug
Description: The compound of the invention (I) and comparison compounds (II-VII) were tested in an assay which measures parameters relevant to the pharmacokinetic profile of the test compound. The assay measured the length of time L-dopa remained in the blood of test animals Naïve male Wistar rats (bodyweight=250-500 g) were used for the pharmacokinetic studies. Animals were fasted overnight. The compound of interest was dissolved in 0.9% saline and co-dosed with Benserazide (10 mg/kg) at a molecular weight equivalent dose to 12.5 mg/kg L-Dopa. Blood samples were taken via a butterfly needle located into the lateral tail vein and collected into sample tubes containing heparin as the anti-coagulant. Blood samples were centrifuged at 5000 rpm for 10 minutes; the supernatant plasma was removed and stored at −80° C. Stock solutions of 10 mM L-Dopa and Warfarin were prepared in 20% TFA, 10 mM sodium meta bisulphite and DMSO, respectively. […] Quantification of L-Dopa and Warfarin was achieved by monitoring the transitions of m/z=198.075/152.1 and […], respectively. The apparent half-life of the L-Dopa generated from the prodrugs was calculated from the terminal plasma samples using non compartment models of WinNonLin (Pharsight California USA) with no weighting.

For `COC(=O)[C@@H](N)Cc1ccc(OC(=O)CC(C)(C)C)c(OC(=O)CC(C)(C)C)c1.Cl` [I, (S)-2-[3,4-Bis-(3,3-dimethyl-butyryloxy)-phenyl]-1-methoxycarbonyl-ethyl-ammonium chloride], the “apparent half-life compared with structurally analogous comparison compounds” value was “significantly greater than the structurally analogous comparison compounds”.
